Results: patent US10064848B2, “Pyridic ketone derivatives, method of preparing same, and pharmaceutical application thereof” (Shanghai Hengrui Pharmaceutical Co., Ltd., priority 2013, dated 2018)

Legend:
[1] = test system: Colo205 cell; assay: Proliferation inhibition on Colo205 (CCK8); format: cell-based; conditions: Homo sapiens, COLO 205, Colo205, 72 hours
Excerpt: Cell line used in the assay: Colo205 (Cell Bank of the Chinese Academy of Sciences, Catalog No. TCHu102).
The following in vitro cell assay is to determine the activity of the compounds of the present invention for inhibiting the proliferation of human colon cancer cell, and the activity is expressed as IC50. General programs of this kind of assay were as follows: First, the cell line to be tested (purchased from Cell Bank of the Chinese Academy of Sciences) was inoculated in a 96-well culture plate with a suitable cell concentration of 4000 cells/mL medium, and was cultured in a carbon dioxide incubator at 37° C., then grown overnight. The medium was replaced by new medium added with a series of concentrations (10000 nM, 1000 nM, 100 nM, 10 nM, 1 nM, 0.1 nM) of the test compound solutions. The plates were placed back in the incubator, and continuously cultured for 72 hours. After 72 hours, CCK8 (Cell Counting Kit-8, Catalog No.: CK04, purchased from colleagues chemical company) method was used to determine the proliferation inhibition activity of the test compounds. IC50 values were calculated from the inhibition data of the test compounds at a series of different concentrations.
The above assay was used to determine the biochemical activity of the compounds of the present invention.

[2] = biological target: T1, MEK1 (Recombinant Human Protein) (Homo sapiens, UniProt Q02750); assay: MEK1 kinase inhibition assay (Z'-LYTE Kinase Assay Kit-Ser/Thr 03 Peptide); format: biochemical; conditions: 4 hours at 37° C, read-out: IC50 for inhibiting MEK kinase (MEK1)
T1 construct: purchased Invitrogen PV3093
T1 sequence (Q02750 whole entry): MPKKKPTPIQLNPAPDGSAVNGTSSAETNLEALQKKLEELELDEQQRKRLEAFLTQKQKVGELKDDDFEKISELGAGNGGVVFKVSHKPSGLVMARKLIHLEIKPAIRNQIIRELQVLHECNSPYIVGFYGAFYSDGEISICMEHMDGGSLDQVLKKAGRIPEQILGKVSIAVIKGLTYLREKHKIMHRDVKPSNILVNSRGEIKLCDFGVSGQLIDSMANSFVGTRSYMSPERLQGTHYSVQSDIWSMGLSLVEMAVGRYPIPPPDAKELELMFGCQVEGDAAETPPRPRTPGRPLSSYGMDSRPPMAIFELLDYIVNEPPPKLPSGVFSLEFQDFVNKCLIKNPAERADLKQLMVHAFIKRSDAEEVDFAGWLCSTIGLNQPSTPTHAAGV
Description: MEK1 kinase activity was tested in vitro by the following method.
MEK kinase used in the assay: MEK1 (Recombinant Human Protein, Invitrogen, Catalog No. PV3093).
Kit used in the assay: Z′-LYTE™ Kinase Assay Kit-Ser/Thr 03 Peptide (Invitrogen, Catalog No. PV3176).
The following in vitro assay was used to determine the activity of the compounds of the present invention for inhibiting the […] MEK kinase. The test compound was dissolved in dimethyl sulfoxide to the desired concentration. 1× Buffer A (Invitrogen, Catalog No. PV3189) was prepared, ATP was diluted with 1× Buffer A to obtain 400 μM ATP solution, appropriate amounts of Z′-LYTE™ Ser/Thr 03 Peptide (Invitrogen, Catalog No. PV3200), MEK kinase (MEK1) Enzymes and 1× Buffer A were mixed, and appropriate amounts of Z′-LYTE™ Ser/Thr 03 phosphoPeptide substrate (Invitrogen, Catalog No. PV3215) and 1× Buffer A were formulated into a mixture to be tested. The 4% DMSO solution of the test compound was prepared from 1× buffer and DMSO solution of the test compound. 2.5 μL DMSO solution of the test compound was added to a reaction well, and then 1× Buffer A, 2.5 μL of 400 μM ATP solution, 5 μL of enzyme and substrate mixture were added to become a 10 μL of reaction system. The reaction system was incubated for 4 hours at 37° C., and a mixture was prepared according to Reagent A:Buffer B=1:1024. 5 μL of a mixture of Reagent A (Invitrogen, Catalog No. PV3295) and Buffer B (Invitrogen, Catalog No. P3127) was added to a reaction well, the reaction system was incubated for 60 minutes at 25° C. The fluorescence was read by a NovoStar ELISA with excitation wavelength: 400 nm, and emission wavelength: 445 nm and 520 nm.
The activity of the compounds of the present invention: The above assay was used to determine the biochemical activity of the compounds of the present invention for inhibiting MEK kinase (MEK1).

Structure (SMILES)	IC50 [1]	IC50 [2]
Cc1c(Oc2cc(=O)n(C)c(Nc3ccc(I)cc3F)c2C(N)=O)cccc1C(=O)NC1CC1 [Example 11, 4-(3-(cyclopropylcarbamoyl)-2-methylphenoxy)-2-((2-fluoro-4-iodophenyl)amino)-1-methyl-6-oxo-1,6-dihydropyridine-3-carboxamide]	4.3 nM	5.5 nM
Cc1cc(Oc2cc(=O)n(C)c(Nc3ccc(I)cc3F)c2C(N)=O)ccn1 [Example 32, 2-((2-fluoro-4-iodophenyl)amino)-1-methyl-4-((2-methylpyridin-4-yl)oxy)-6-oxo-1,6-dihydropyridine-3-carboxamide]	4 nM	5.5 nM
Cc1cccc(C)c1Oc1cc(=O)n(C)c(Nc2ccc(I)cc2F)c1C(N)=O [Example 21, 4-(2,6-dimethylphenoxy)-2-((2-fluoro-4-iodophenyl)amino)-1-methyl-6-oxo-1,6-dihydropyridine-3-carboxamide]	10.2 nM	6.3 nM
CC(=O)c1cccc(Oc2cc(=O)n(C)c(Nc3ccc(I)cc3F)c2C(N)=O)c1C [Example 13, 4-(3-acetyl-2-methylphenoxy)-2-((2-fluoro-4-iodophenyl)amino)-1-methyl-6-oxo-1,6-dihydropyridine-3-carboxamide]	2.9 nM	5.5 nM
Cc1c(O)cccc1Oc1cc(=O)n(C)c(Nc2ccc(I)cc2F)c1C(N)=O [Example 24, 4-(3-hydroxy-2-methylphenoxy)-2-((2-fluoro-4-iodophenyl)amino)-1-methyl-6-oxo-1,6-dihydropyridine-3-carboxamide]	3.1 nM	4 nM
COc1cccc(Oc2cc(=O)n(C)c(Nc3ccc(I)cc3F)c2C(N)=O)c1C [Example 16, 4-(3-methoxy-2-methylphenoxy)-2-((2-fluoro-4-iodophenyl)amino)-1-methyl-6-oxo-1,6-dihydropyridine-3-carboxamide]	11.5 nM	9.5 nM
Cc1ccc(Oc2cc(=O)n(C)c(Nc3ccc(I)cc3F)c2C(N)=O)c(Cl)c1 [Example 15, 4-(2-chloro-4-methylphenoxy)-2-((2-fluoro-4-iodophenyl)amino)-1-methyl-6-oxo-1,6-dihydropyridine-3-carboxamide]	10.2 nM	8.2 nM

Now those with a lower IC50 [1], led by results:

IC50 [1]	IC50 [2]	Structure (SMILES)
0.5 nM	3.2 nM	CCC(=O)Nc1cccc(Oc2cc(=O)n(C)c(Nc3ccc(I)cc3F)c2C(N)=O)c1C [Example 8, 4-(3-propionamido-2-methylphenoxy)-2-((2-fluoro-4-iodophenyl)amino)-1-methyl-6-oxo-1,6-dihydropyridine-3-carboxamide]
0.4 nM	4.2 nM	Cc1ccccc1Oc1cc(=O)n(C)c(Nc2ccc(I)cc2F)c1C(N)=O [Example 23, 4-(2-methylphenoxy)-2-((2-fluoro-4-iodophenyl)amino)-1-methyl-6-oxo-1,6-dihydropyridine-3-carboxamide]
0.7 nM	5.1 nM	Cc1c(Oc2cc(=O)n(C)c(Nc3ccc(I)cc3F)c2C(N)=O)cccc1O[C@@H]1CCOC1 [Example 12, (R)-2-((2-fluoro-4-iodophenyl)amino)-1-methyl-4-(2-methyl-3-((tetrahydrofuran-3-yl)oxy)phenoxy)-6-oxo-1,6-dihydropyridine-3-carboxamide]
1.4 nM	7.9 nM	Cc1cccc(Oc2cc(=O)n(C)c(Nc3ccc(I)cc3F)c2C(N)=O)c1C [Example 18, 4-(2,3-dimethylphenoxy)-2-((2-fluoro-4-iodophenyl)amino)-1-methyl-6-oxo-1,6-dihydropyridine-3-carboxamide]
1.7 nM	2.9 nM	Cc1ccc(Oc2cc(=O)n(C)c(Nc3ccc(I)cc3F)c2C(N)=O)c(C)c1 [Example 20, 4-(2,4-dimethylphenoxy)-2-((2-fluoro-4-iodophenyl)amino)-1-methyl-6-oxo-1,6-dihydropyridine-3-carboxamide]
0.4 nM	5.5 nM	Cc1c(NC(=O)C2CC2)cccc1Oc1cc(=O)n(C)c(Nc2ccc(I)cc2F)c1C(N)=O [Example 7, 4-(3-(cyclopropanecarboxamido)-2-methylphenoxy)-2-((2-fluoro-4-iodophenyl)amino)-1-methyl-6-oxo-1,6-dihydropyridine-3-carboxamide]
0.3 nM	6 nM	Cc1c(Oc2cc(=O)n(C)c(Nc3ccc(I)cc3F)c2C(N)=O)cccc1O[C@H]1CCOC1 [Example 9, (S)-2-((2-fluoro-4-iodophenyl)amino)-1-methyl-4-(2-methyl-3-((tetrahydrofuran-3-yl)oxy)phenoxy)-6-oxo-1,6-dihydropyridine-3-carboxamide]
